From US20140364431A1, “Quinoline and cinnoline derivatives and their applications” (Shenyang Pharmaceutical University, priority 2011, published 2014)

Columns and labels:
[1] = tested on: human tumor cell lines (such as human lung cancer cells, human gastric cancer cells, etc.); details: cited from earlier work
[2] = tested on: SMMC-7721 (hepatoma cell); experiment: In vitro anti-tumor cellular activity (MTT), SMMC-7721; assay type: cell-based, human; details: MTT, 72 hours, SMMC-7721
[3] = tested on: HT-29 (colon cancer cell); experiment: In vitro anti-tumor cellular activity (MTT), HT-29; assay type: cell-based, human; details: MTT, 72 hours, HT-29
[4] = tested on: H460 (human lung cancer cell); experiment: In vitro anti-tumor cellular activity (MTT), H460; assay type: cell-based; details: MTT, 72 hours, H460
[5] = molecular target: T1, c-Met (His-tagged recombinant human Met (Amino acids 974-ends)) (Homo sapiens, UniProt P08581); experiment: c-Met kinase assay (ELISA); assay type: biochemical; details: 50 pM c-Met, 5 μM ATP, 20 min
T1 construct: His-tagged recombinant human Met (Amino acids 974-ends); His; host or cells: baculovirus expression
Protocol: c-Met kinase activity was measured with an ELISA reader.
The reaction mixture was removed by washing with 0.2 μg/mL conjugated horseradish peroxidase (HRP) monoclonal antibody specific for phosphotyrosine (PY20) detecting phosphorylation of the substrate polymer. 1M phosphoric acid was added to terminate the color, the chromogenic substrate (TMB) was tested by spectrophotometry at 450 nm.

[6] = tested on: U87MG (Human malignant glioblastoma cells); experiment: In vitro anti-tumor cellular activity (MTT), U87MG; assay type: cell-based; details: MTT, 72 hours, U87MG
[7] = tested on: MKN-45 (human gastric carcinoma cell); experiment: In vitro anti-tumor cellular activity (MTT), MKN-45; assay type: cell-based; details: MTT, 72 hours, MKN-45

T1 sequence (P08581 974-1390 limits assumed): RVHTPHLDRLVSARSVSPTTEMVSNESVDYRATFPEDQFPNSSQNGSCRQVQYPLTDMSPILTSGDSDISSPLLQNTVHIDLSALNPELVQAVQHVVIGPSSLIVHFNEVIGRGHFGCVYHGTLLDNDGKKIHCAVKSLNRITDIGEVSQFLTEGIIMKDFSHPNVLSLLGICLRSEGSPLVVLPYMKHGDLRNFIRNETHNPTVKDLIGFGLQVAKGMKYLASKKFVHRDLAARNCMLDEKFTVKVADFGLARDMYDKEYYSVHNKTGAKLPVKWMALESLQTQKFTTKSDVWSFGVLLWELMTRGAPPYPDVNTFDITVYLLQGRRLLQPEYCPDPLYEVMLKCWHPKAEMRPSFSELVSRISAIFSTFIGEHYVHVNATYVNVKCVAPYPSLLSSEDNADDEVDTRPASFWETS

Compound: COc1cc2c(Oc3ccc(NC(=O)C4(C(=O)Nc5ccc(F)cc5)CC4)cc3F)ccnc2cc1OCCCN1CCOCC1 [Foretinib]
- IC50 against a variety of human tumor cell lines [1]: 0.004 µg/mL

Compound: N-(3-fluoro-4-((6-methoxy-7-(3-(4-methylpiperazin-1-yl)propoxy)quinolin-4-yl)oxy)phenyl)-1-(2-(trifluoromethyl)phenyl)-4-oxo-1,4-dihydrocinnoline-3-carboxamide [Example 44]
- SMMC-7721 IC50 [2]: 2.1 µg/mL
- HT-29 IC50 [3]: 1.2 µg/mL
- H460 IC50 [4]: 1.6 µg/mL
- c-Met IC50 [5]: 1.1 µg/mL
- U87MG IC50 [6]: 0.84 µg/mL
- MKN-45 IC50 [7]: 1.8 µg/mL

Compound: N-(3-fluoro-4-((6-methoxy-7-(3-(4-methylpiperazin-1-yl)propoxy)quinolin-4-yl)oxy)phenyl)-1-(2-chlorophenyl)-4-oxo-1,4-dihydrocinnoline-3-carboxamide dihydrochloride [Example 17]
- SMMC-7721 IC50 [2]: 0.5 µg/mL
- HT-29 IC50 [3]: 1.8 µg/mL
- H460 IC50 [4]: 1.4 µg/mL
- c-Met IC50 [5]: 0.2 µg/mL
- U87MG IC50 [6]: 0.9 µg/mL
- MKN-45 IC50 [7]: 2.1 µg/mL

Compound: N-(3-fluoro-4-((6-methoxy-7-(3-(4-methylpiperidin-1-yl)propoxy)quinolin-4-yl)oxy)phenyl)-1-(2-chlorophenyl)-4-oxo-1,4-dihydrocinnoline-3-carboxamide dihydrochloride [Example 15]
- SMMC-7721 IC50 [2]: 1.5 µg/mL
- HT-29 IC50 [3]: 0.6 µg/mL
- H460 IC50 [4]: 1 µg/mL
- c-Met IC50 [5]: 0.66 µg/mL
- U87MG IC50 [6]: 0.2 µg/mL
- MKN-45 IC50 [7]: 0.8 µg/mL

Compound: N-(3-fluoro-4-((6-methoxy-7-(3-(4-methylpiperidin-1-yl)propoxy)quinolin-4-yl)oxy)phenyl)-1-(3,4-difluorophenyl)-4-oxo-1,4-dihydroquinoline-3-carboxamide [Example 58]
- SMMC-7721 IC50 [2]: 1.1 µg/mL
- HT-29 IC50 [3]: 0.95 µg/mL
- H460 IC50 [4]: 1.4 µg/mL
- c-Met IC50 [5]: 0.72 µg/mL
- U87MG IC50 [6]: 2.1 µg/mL
- MKN-45 IC50 [7]: 1.8 µg/mL

Compound: N-(3-fluoro-4-((6-methoxy-7-(3-(piperidin-1-yl)propoxy)quinolin-4-yl)oxy)phenyl)-1-(2-fl uorophenyl)-4-oxo-1,4-dihydrocinnoline-3-carboxamide [Example 7]
- SMMC-7721 IC50 [2]: 0.63 µg/mL
- HT-29 IC50 [3]: 0.82 µg/mL
- H460 IC50 [4]: 1.7 µg/mL
- c-Met IC50 [5]: 0.5 µg/mL
- U87MG IC50 [6]: 1.5 µg/mL
- MKN-45 IC50 [7]: 1.4 µg/mL

Compound: N-(3-fluoro-4-((6-methoxy-7-(3-(piperidin-1-yl)propoxy)quinolin-4-yl)oxy)phenyl)-1-(4-fl uorophenyl)-4-oxo-1,4-dihydroquinoline-3-carboxamide dihydrochloride [Example 49]
- SMMC-7721 IC50 [2]: 0.99 µg/mL
- HT-29 IC50 [3]: 1.3 µg/mL
- H460 IC50 [4]: 1.1 µg/mL
- c-Met IC50 [5]: 0.6 µg/mL
- U87MG IC50 [6]: 0.9 µg/mL
- MKN-45 IC50 [7]: 0.76 µg/mL

Compound: N-(3-fluoro-4-((6-methoxy-7-(3-(pyrrolidin-1-yl)propoxy)quinolin-4-yl)oxy)phenyl)-1-(2-c hlorophenyl)-4-oxo-1,4-dihydrocinnoline-3-carboxamide dihydrochloride [Example 16]
- SMMC-7721 IC50 [2]: 0.45 µg/mL
- HT-29 IC50 [3]: 0.57 µg/mL
- H460 IC50 [4]: 0.69 µg/mL
- c-Met IC50 [5]: 0.9 µg/mL
- U87MG IC50 [6]: 0.2 µg/mL
- MKN-45 IC50 [7]: 1.1 µg/mL
